{
  "source": "patent US20120046258A1",
  "about": "“NOVEL CRYSTALLINE PHARMACEUTICAL PRODUCT” (GLAXO GROUP LIMITED, priority 2005, published 2012)",
  "assay": "Anderson Cascade impaction analysis of dry powder blend in blister strip",
  "format": "physicochemical",
  "conditions": "0.8% w/w drug in milled lactose blend, 13 mg per blister",
  "protocol": "A blend was prepared containing 0.8% w/w 6α,9α-difluoro-17α-[(2-furanylcarbonyl)oxy]-11β-hydroxy-16α-methyl-3-oxo-androsta-1,4-diene-17β-carbothioic acid S-fluoromethyl ester, prepared as particles according to the invention, and 99.2% w/w milled lactose (wherein the mean particle size is of the range 60-90 μm, and not greater than 15% of particles have a MMD of less than 15 μm).\nThe above composition was blended for 10 minutes at 600 rpm in a 2.5 litre bowl QMM Micromixer. A peelable blister strip containing 14 blisters, each filled with 13 mg of the powder formulation described above was prepared.\nAnderson Cascade impaction analysis of this product was performed initially and after 1 month storage at 30° C. and 65% relative humidity as shown in Table 1 below.",
  "data": [
    {"compound": "C[C@]12C[C@H](O)[C@@]3(F)C(C[C@H](F)C4=CC(=O)C=C[C@@]43C)C1C[C@](C)(OC(=O)c1ccco1)[C@@H]2C(=O)SCF", "note": "(some centres unmarked) [Micronised Drug, reference compound]", "values": [
      {"measurement": "Respirable fraction (% of Total Emitted Dose)", "setting": "1 month @ 30° C./65% Relative Humidity", "result": "25.1 % of Total Emitted Dose"},
      {"measurement": "Respirable fraction (% of Total Emitted Dose)", "setting": "Initial", "result": "26.6 % of Total Emitted Dose"}
    ]}
  ]
}
